A short description of data set [1]: Pharmacokinetics in vivo experiment in cynomolgus macaques. To be noted: male, cynomolgus monkey, 10 mg/kg; for AUC / Cmax / Tmax: in vivo, po; for half-life: plasma, cynomolgus macaque, oral administration. The protocol:
• Basic information of animals • Species: cynomolgus macaque • Grade: conventional grade • Quantity: 18 cynomolgus macaques (male) were used in the drug administration experiment. • Weight: about 2.5 to 4.5 kg • Age: 3 to 5 years old • Source: Huazhen Animal Farm, Conghua City (General Partnership)
There are 9 male cynomolgus macaques, 3 cynomolgus macaques/group, 3 groups in total. The animals were fasted for 12 hours before administration, and the test solution was administered by gavage (10 mg/kg), and the administration volume was 2.5 mL/kg.
The blood was placed on wet ice, and centrifuged at 1700 g at 4° C. for 10 min within 1.5 h after collection. After centrifugation, the plasma was taken and added into a detection tube. Plasma samples can be stored in a refrigerator below-20° C. within 2 hours after centrifugation.
WinNonlin 8.1.0.3530 was used to calculate pharmacokinetic parameters.

Data set [2] can be described thus: in vivo. The conditions noted are these: male, CD1, mouse.
For data set [3] the following is noted: male, CD1, mouse, in vivo, po, 10 mg/kg.
Data set [4] addresses SARS-COV-2 3CLpro/Mpro protease (Severe acute respiratory syndrome coronavirus 2 (2019-nCoV) (SARS-CoV-2), UniProt P0DTD1). Nature of the data set: Inhibitory effect on SARS-COV-2 3CLpro/Mpro protease by fluorescence resonance energy transfer. The format is biochemical. The conditions noted are these: activity intervals A-D.
Data set [5] in a line: Pharmacokinetics in vivo experiment in CD1 mice. To be noted: oral administration, 10 mg/kg.
The mark [6] stands for this setting: read-out: IC50 (nM), Inhibition on SARS-CoV-2 3CLpro/Mpro protease.

The values that follow come from US20250042889A1, “3CLPRO PROTEASE INHIBITOR” (SHANGHAI QILU PHARMACEUTICAL RESEARCH AND DEVELOPMENT …, priority 2021, published 2025).

Read-outs that look alike come from different tables or passages of the source.

The AUC is concentration integrated over time. One may read the Cmax as the peak of the concentration-time curve. For orientation: Tmax means the time from dosing to the highest level. As usually defined, the half-life is the time needed for the level to fall by half in the phase considered. Lower therefore signals rapid decline. As a reminder, the Vd is the apparent volume that relates the amount in the body to the concentration in plasma or blood. High values mean wide distribution into tissue, low ones little distribution into tissue. Broadly, the clearance is a measure of how efficiently the substance is removed, as volume per time.

On to `CNc1cncc(C(=O)N2CCC[C@@H](Nc3c(C(=O)N4CCCCC4)cc(Br)cc3[N+](=O)[O-])C2)c1` [Example 31, (R)-(5-bromo-2-((1-(5-(methylamino)nicotinoyl)piperidin-3-yl)amino)-3-nitrophenyl)(piperidin-1-yl)methanone], for which, in data set [1], the AUC worked out at 454 ng·h/mL, the Cmax was determined as 232 ng/mL, the Tmax came out at 79.8 min and the half-life is 29.4 min. Further, in data set [2] (in vivo, iv, 1 mg/kg), the AUC is 88 ng·h/mL, the Vd amounted to 1.56 L/kg and the clearance came out at 11.6 mL/min/kg. In data set [2] (in vivo, po, 10 mg/kg), this compound had an AUC of 369 ng·h/mL and a Cmax of 401 ng/mL. The compound also had a half-life in data set [2] (plasma, po, 10 mg/kg) of 15 min. In data set [3], this compound yielded an F of 42.1%. In addition, the IC50 in data set [4] (setting [6]) was in the range of 10 to 50 nM.

On to `CNc1cncc(C(=O)N2CCC[C@@H](Nc3c(C(=O)N4C[C@@H](C)O[C@@H](C)C4)cc(Br)cc3[N+](=O)[O-])C2)c1` [Example 34, (5-Bromo-2-((R)-1-(5-(methylamino)nicotinoyl)piperidin-3-yl)amino)-3-nitrophenyl ((2R,6S)-2,6-dimethylmorpholinyl)methanone], for which, in data set [1], the AUC came out at 4090 ng·h/mL, the Cmax was 1960 ng/mL, the Tmax worked out at 79.8 min and the half-life was 35 min. Moreover, in data set [2] (in vivo, iv, 1 mg/kg), the AUC was determined as 107 ng·h/mL, the Vd is 1.02 L/kg and the clearance stood at 9.4 mL/min/kg. Also, in data set [2] (in vivo, po, 10 mg/kg), the area under the curve (AUC) is 702 ng·h/mL and the concentration peaked (Cmax) at 1020 ng/mL. The compound further gave a half-life in data set [2] (plasma, iv, 1 mg/kg) of 6.84 min. Further, in data set [2] (plasma, po, 10 mg/kg), the half-life is 30 min. In data set [3], this compound came in with an F of 63%. In addition, the IC50 in data set [4] (setting [6]) was in the range of 10 to 50 nM.

`CNc1cncc(C(=O)N2CCC[C@@H](Nc3c(C(=O)N4CCO[C@H](C)C4)cc(Br)cc3[N+](=O)[O-])C2)c1` [Example 35]: in data set [2] (in vivo, iv, 1 mg/kg), the AUC amounted to 112 ng·h/mL, the Vd turned out to be 1.28 L/kg and the clearance was 9.12 mL/min/kg. In data set [2] (in vivo, po, 10 mg/kg), this compound gave an AUC of 668 ng·h/mL and a Cmax of 1020 ng/mL. This compound also showed a half-life in data set [2] (plasma, iv, 1 mg/kg) of 8.1 min. This compound also returned a F in data set [3] of 60%. In addition, the IC50 in data set [4] (setting [6]) lay within 10 to 50 nM.

Consider `CNc1cncc(C(=O)N2CCC[C@@H](Nc3c(C(=O)N4CCCC(F)(F)C4)cc(Br)cc3[N+](=O)[O-])C2)c1` [Example 36, (R)-(5-bromo-2-((1-(5-(methylamino)nicotinoyl)piperidin-3-yl)amino)-3-nitrophenyl)(3,3-difluoropiperidin-1-yl)methanone], for which, in data set [2] (in vivo, iv, 1 mg/kg), the AUC turned out to be 92 ng·h/mL, the Vd turned out to be 1.7 L/kg and the clearance turned out to be 11.2 mL/min/kg. For the same compound, in data set [2] (in vivo, po, 10 mg/kg), the AUC worked out at 273 ng·h/mL and the highest level (Cmax) was 365 ng/mL. Besides, the half-life in data set [2] (plasma, iv, 1 mg/kg) was 8.16 min. The same compound gave a F in data set [3] of 29.7%. In addition, in data set [4] (setting [6]), the IC50 fell in the range of 10 to 50 nM.

In data set [2] (in vivo, iv, 1 mg/kg), `CNc1cncc(C(=O)N2CCC[C@@H](Nc3c(C(=O)N4CCOC(F)(F)C4)cc(Br)cc3[N+](=O)[O-])C2)c1` [Example 295] gave an AUC of 136 ng·h/mL, a Vd of 1.06 L/kg and a clearance of 7.4 mL/min/kg. Besides, in data set [2] (in vivo, po, 10 mg/kg), the AUC was found to be 494 ng·h/mL and the Cmax turned out to be 697 ng/mL. In data set [2] (plasma, iv, 1 mg/kg), this compound had a half-life of 7.62 min. Moreover, in data set [2] (plasma, po, 10 mg/kg), the half-life was 11.6 min. The F in data set [3] is 36.3%. Further, the IC50 in data set [4] (setting [6]) was 10 to 50 nM.

Regarding `CNc1cncc(C(=O)N2CCC[C@@H](Nc3c(C(=O)N4C5CCCC4COC5)cc(Br)cc3[N+](=O)[O-])C2)c1` [Example 312], in data set [2] (in vivo, iv, 1 mg/kg), the AUC turned out to be 95 ng·h/mL, the distribution volume (Vd) came out at 1.38 L/kg, the clearance is 10.6 mL/min/kg and the half-life was 7.68 min. In data set [2] (in vivo, po, 10 mg/kg), this compound had an exposure (AUC) of 605 ng·h/mL, a Cmax of 594 ng/mL and a half-life of 46.1 min. This compound also gave a F in data set [5] of 65.5%. Further, in data set [4] (IC50 (nM), Inhibition on SARS-CoV-2 3CLpro/Mpro protease), the IC50 was 10 to 50 nM.

With `O=C(c1cc(Br)cc([N+](=O)[O-])c1N[C@@H]1CCCN(C(=O)[C@H]2CNCC(F)(F)C2)C1)N1CCCCC1` [Example 320], in data set [2] (in vivo, iv, 1 mg/kg), the AUC was found to be 156 ng·h/mL, the Vd is 2.1 L/kg and the clearance is 6.3 mL/min/kg. Moreover, in data set [2] (in vivo, po, 10 mg/kg), the AUC is 280 ng·h/mL and the Cmax turned out to be 825 ng/mL. The same compound had a half-life in data set [2] (plasma, iv, 1 mg/kg) of 21.6 min. In data set [2] (plasma, po, 10 mg/kg), this compound gave a half-life of 26.2 min. The same compound showed a F in data set [3] of 27.7%. The IC50 in data set [4] (setting [6]) was 10 to 50 nM.

For `CNc1cncc(C(=O)N2C[C@H](Nc3c(C(=O)N4C[C@@H](C)O[C@@H](C)C4)cc(Br)cc3[N+](=O)[O-])[C@@H](OC)C2)c1` [Example 321], in data set [1], the AUC is 994 ng·h/mL, the Cmax is 699 ng/mL and the Tmax was determined as 70.2 min. In data set [2] (in vivo, iv, 1 mg/kg), this compound registered an AUC of 153 ng·h/mL, a Vd of 7.1 L/kg and a clearance of 6.2 mL/min/kg. Besides, in data set [2] (in vivo, po, 10 mg/kg), the AUC turned out to be 1350 ng·h/mL and the Cmax was determined as 1640 ng/mL. The compound also had a half-life in data set [2] (plasma, iv, 1 mg/kg) of 96 min. Moreover, in data set [2] (plasma, po, 10 mg/kg), the half-life is 144 min. Also, in data set [3], the F stood at 84.7%. Moreover, the IC50 in data set [4] (setting [6]) lay in the range of 10 to 50 nM.

As for `CNc1cncc(C(=O)N2C[C@H](Nc3c(C(=O)N4C[C@@H](C)O[C@@H](C)C4)cc(Br)cc3[N+](=O)[O-])C[C@@H](OC)C2)c1` [Example 422], in data set [2] (in vivo, iv, 1 mg/kg), the AUC was determined as 102 ng·h/mL, the Vd worked out at 1.32 L/kg and the clearance was found to be 9.82 mL/min/kg. In data set [2] (in vivo, po, 10 mg/kg), the AUC is 628 ng·h/mL and the highest level (Cmax) was 725 ng/mL. In data set [2] (plasma, iv, 1 mg/kg), the half-life was 6.36 min. In data set [2] (plasma, po, 10 mg/kg), this compound gave a half-life of 19.2 min. Moreover, the F in data set [3] worked out at 62.6%. In data set [4] (setting [6]), the IC50 lay in the range of 50 to 100 nM.
